Read-outs that look alike come from different tables or passages of the source.

For orientation: solubility means the concentration that dissolves in the medium under given conditions. In general, pKa refers to the negative logarithm of the acid dissociation constant. As a reminder, the Ki is the equilibrium dissociation constant of an inhibitor or competing ligand from its target. Lower therefore signals higher affinity.

Data set [1] is described as follows: topical administration of prior art inhibitors, intraocular pressure. The data set is classed as in vivo.
A further data set can be described thus: solubility in water. The settings on record: for ability to form an aqueous solution of sufficient concentration for topical use: near neutral pH.
Data set [2] is described as follows: pKa by titration with NaOH. It is filed as physicochemical. The text has this:
The pKa may be measured by titrating the compound with NaOH and finding the point at which half of the compound is neutralized. The pH at this point is the pKa.

For data set [3] the following is noted: Foss 1955; cited from earlier work.
Data set [4] is described as follows: ether partition coefficient at pH 7.2. It is filed as physicochemical. The procedure: This property in conjunction with the chloroform coefficient is a measure of the lipid solubility of this compound. This is a critical feature since the compound must be readily absorbed by the lipid materials in the eye and be available for intimate contact with carbonic anhydrase so as to control its activity. This property is measured by preparing an aqueous solution of the compound at pH 7.2 and shaking the solution with an equal volume of ether until equilibrium is achieved in the system. An ether layer and an aqueous layer are formed, separated, and each analyzed for its content of the compound. The coefficient is the ratio of the amount of the compound in the ether layer to the amount of the compound in the aqueous layer. See, e.g., Maren, J. Pharm. […] Therap. Vol. 130, p.

Data set [5] can be described thus: first order rate constant for penetration through living rabbit cornea. The data set is classed as in vivo. The procedure:
Still another critical property of the inhibitor compounds employed in this invention is that the compound must have a first order rate constant for penetration of the compound through a living rabbit cornea of at least 0.005 hr^-1. This property is important in that it sets a standard for a speed in which the inhibitor will pass through the cornea to the interior of the eye and be available to inhibit the activity of carbonic anhydrase in that location. This is measured by placing a solution of the compound (about 0.5 ml) on the cornea of the living, lightly anesthetized rabbit. The lids are held by light hemostats in such a way as to create a well to hold the solution so that a steady state concentration is achieved. At timed intervals, samples are withdrawn from the anterior chamber of the rabbit and the fluid analyzed for the concentration of drug. The analyses are done by the method of Maren, supra. The data are treated to yield the first order rate constants which are cited herein.

A further data set is described as follows: stability in solution. The data set is classed as physicochemical. The text has this:
The final property which is necessary for a compound used in this invention is that it be stable against decomposition in solution and in contact with the cornea. This property may be tested by dissolving the compound in aqueous solution and in solution containing corneal tissue to determine whether the compound has remained stable or has decomposed into other materials.

Data set [6] in a line: chloroform partition coefficient at pH 7.2. The data set is classed as physicochemical. The procedure:
Another critical property necessary in the inhibitors employed in this invention is the chloroform partition coefficient which must be at least 0.01. This property also relates to the lipid solubility of the compound employed and it is measured as described above with respect to ether. The procedure is the same as that described above except that chloroform is employed in place of ether.

Another data set can be described thus: injury to the cornea. It is filed as in vivo. The settings on record: 2-5% solution. The text has this: Still another critical property of the compounds employed in this invention is that they be pharmaceutically acceptable and not be injurious to the cornea being treated.
The target in another data set is carbonic anhydrase (Homo sapiens, UniProt P00918). Description: dissociation constant against carbonic anhydrase. It is filed as biochemical. The text has this:
The dissociation constant is the concentration of the compound that will inhibit one-half of the carbonic anhydrase in a test system wherein the conditions are so arranged that the compound is present in excess of the carbonic anydrase.

For the molecule `CCOc1ccc2nc(S(N)(=O)=O)sc2c1` [ethoxzolamide, 6-ethoxy-benzothiazole-2-sulfonamide], in data set [1], the “reduction of intraocular pressure by topical application” value is reported as “ineffective”. This molecule returned a solubility in the data set “solubility in water” (water) not above 0.04 mg/mL. For the same molecule, the pKa in data set [2] was found to be 8.1.

Turning to `CC(=O)Nc1nnc(S(N)(=O)=O)s1` [acetazolamide, 2-acetylamino-1,3,4-thiadiazole-5-sulfonamide], in “solubility in water”, the “ability to form an aqueous solution of sufficient concentration for topical use” value is on record as “cannot be made into a water solution below pH 8 at concentrations sufficiently high”. For the same molecule, the “lowering intraocular pressure by topical administration” value in data set [3] was “completely unsuitable”.

`Cn1nc(S(N)(=O)=O)sc1=NC(=O)C(F)(F)F` [trifluoromethazolamide, 2-trifluoroacetylimino-3-methyl-Δ^2-1,3,4-thiadiazoline-5-sulfonamide] had an ether partition coefficient in data set [4] of 6.0. In addition, the “in vivo rabbit cornea penetration rate constant” value in data set [5] is 0.014 h⁻¹. In the data set “stability in solution”, the stability in solution entry is recorded as “stable in solution for two hours”. Also, the chloroform partition coefficient in data set [6] was determined as 0.3. For the same molecule, in data set [2], the pKa was 6.6. The “injury or clouding of the cornea” value in the data set “injury to the cornea” is on record as “does not injure or cloud the cornea”.

In the case of `Cn1nc(S(N)(=O)=O)sc1=NC(=O)C(Cl)(Cl)Cl` [trichloromethazolamide, 2-trichloroacetylimino-3-methyl-Δ^2-1,3,4-thiadiazoline-5-sulfonamide], the ether partition coefficient in data set [4] is 56. The “in vivo rabbit cornea penetration rate constant” value in data set [5] was 0.063 h⁻¹. The stability in solution entry in “stability in solution” is “stable in solution for at least six hours”. At carbonic anhydrase, this molecule returned a Ki of 0.02 µM. The molecule also had a chloroform partition coefficient in [6] of 4. In addition, in data set [2] (read-out: pKa), the pKa came out at 7. The “injury or clouding of the cornea” value in the data set “injury to the cornea” was “does not injure or cloud the cornea”.

For `CC(=O)/N=c1/sc(S(N)(=O)=O)nn1C` [Methazolamide, 2-acetylimino-3-methyl-Δ^2-1,3,4-thiadiazoline-5-sulfonamide], the “reduction of intraocular pressure by topical application” value in [1] was “not reduced except to a very slight extent in one of the series of tests”. The “ability to form an aqueous solution of sufficient concentration for topical use” value in the data set “solubility in water” is “cannot be made into a neutral solution with a sufficiently high concentration”. The same molecule gave a pKa in data set [2] of 7.4.

`NS(=O)(=O)c1nnc(-c2ccccc2Cl)s1` [2-orthochlorophenylthiadiazole-5-sulfonamide]: the “in vivo rabbit cornea penetration rate constant” value in data set [5] is 0.3 h⁻¹. Further, in the data set “stability in solution”, the stability in solution entry is listed as “stable in solution”. Also, in data set [2] (read-out: pKa), the pKa was found to be 7.3.

The values above are taken from patent publication US4619939A, “Process for reducing intraocular pressure” (priority 1985, dated 1986).
